Laboratory results taken from patent US20040171823A1, “Polynucleotides and polypeptides associated with the NF-kappaB pathway” (priority 2003, published 2004).

Test system: NF-κB activation pathway
Test: Real-time PCR (TaqMan/SYBR Green) of target gene mRNA in LPS-stimulated THP-1 cells with NF-κB pathway inhibitors
Assay type: cell-based, human
Settings: BMS-345541 10 μM, dexamethasone 100 nM; for MGC20791 expression (mRNA): all time points examined, FIG. 5D; for BCL-6 expression (mRNA): FIG. 5C
Protocol: Poly (A)^+ mRNA was isolated from THP-1 cells that were either unstimulated, or stimulated with 100 ng/ml LPS for two hours in the presence and absence of BMS-205820 (2 uM) using the Fast Track isolation kit (Invitrogen, Carlsbad, Calif.) according to manufacturer's instructions. RNA quality and quantity were evaluated using UV spectrometry and capillary electrophoresis with the RNA 6000 Assay 10 (Agilent). First-strand cDNA was synthesized using the SuperScript™ First-Strand Synthesis System for RT-PCR (Invitrogen) according to manufacturer's instructions.
PCR reactions were performed in a total volume of 40 ul containing master mix (SYBR Green I dye, 50 mM Tris-Cl pH 8.3, 75 mM KCl, DMSO, Rox reference dye, 5 mM MgCl2, 2 mM dNTP, 1 unit Platinum Taq High Fidelity enzyme), 0.5 uM 15 each of forward and reverse gene-specific primers, and cDNA (8 ul of a 1:36 dilution of the first strand reaction mix). For tissue expression analyses, PCR reactions included 2 ul of cDNA derived from the Human Multiple Tissue cDNA panel I and Human Immune System MTC Panel (Clontech, Palo Alto, Calif.). The amplification program consisted of a 10 minute incubation at 95° C., followed by 40 cycles of incubations at 95° C. for 15 seconds, 60° C. for 1 minute. The amplification was followed by melting curve analysis at 60° C. to determine the specificity of the amplification reaction. The data were analyzed using the TaqMan 5700 software with the threshold value set to 0.5. The message levels of GAPDH were used to normalize the amounts of cDNA for each reaction.
PolyA+ mRNA was isolated from THP1 cells that were either unstimulated, stimulated with LPS for 2 hours, or stimulated with LPS for 2 hours in the presence of the peptide BMS-205820 (2 μM). In some experiments, THP-1 cells were stimulated with LPS in the presence of the glucocorticoid dexamethasone (100 nM), and the IKK-2 inhibitor, BMS-345541 (10 μM). RNA quality and quantity were evaluated using UV spectrometry and capillary electrophoresis with the RNA 6000 Assay by Agilent. Five-hundred nanograms of polyA RNA was used for first-strand cDNA synthesis using the SuperScript™ First-Strand Synthesis System for RT-PCR (Life Technologies) following the manufacturer's instructions with 250 ng of random hexamers.
PCR Reactions were performed in a total volume of 40 μl. The master mix contained SYBR Green I Dye, 50 mM Tris-HCl pH8.3, 75 mM KCl, DMSO, Rox reference dye, 5 mM MgCl2, 2 mM dNTP, Platinum Taq High Fidelity (1U/reaction), and 0.5 μM of each primer. The cDNA was diluted 1:36 from the synthesis reaction and eight microliters was used in each PCR reaction. For tissue distribution analyses, two microliters of cDNA from the Human Multiple Tissue and Human Immune System MTC cDNA panels were used as templates. The amplification program consisted of a 10 minute incubation at 95° C. followed by forty cycles of incubations at 95° C. for 15 seconds and 60° C. for 1 minute. […] A negative control without cDNA template was run to assess the overall specificity.
A relative value for the initial target concentration in each reaction was determined using the TaqMan 5700 software. The threshold value was set to 0.5 to obtain cycle threshold values that were used to assign relative message levels for each target. The message levels of GAPDH were determined for each cDNA sample and were used to normalize all other genes tested from the same cDNA sample.

[1] = THP-1 cells stimulated with LPS

Compound	MGC20791 expression (mRNA) [1]	Cytokine-Inducible Kinase (CNK) expression (mRNA) (THP-1 cells stimulated with LPS, all time points, FIG. 5A)	BCL-2 Like 11 expression (mRNA) (THP-1 cells stimulated with LPS, each time point, FIG. 5B)	BCL-6 expression (mRNA) [1]	Stat1 expression (mRNA) (THP-1 cells, 8 hours post LPS stimulation, FIG. 5E)
Cc1ccc2nc(NCCN)c3ncc(C)n3c2c1 [BMS-345541]	significantly inhibited	potently inhibited	significantly inhibited expression at each time point below that detected in resting cells	significantly inhibited	significantly inhibited
C[C@@H]1C[C@H]2[C@@H]3CCC4=CC(=O)C=C[C@]4(C)[C@@]3(F)[C@@H](O)C[C@]2(C)[C@@]1(O)C(=O)CO [dexamethasone]	failed to inhibit	–	–	failed to inhibit	–
